Assay results: patent US9957261B2 (Hoffmann-La Roche Inc., priority 2014, dated 2018)

Experiments:
[1] = molecular target: mouse TAAR1 (Mus musculus (Mouse), UniProt Q923Y8); assay: Radioligand binding assay on mouse TAAR1; conditions: for Ki: mouse TAAR1, membranes of stably transfected HEK-293 cells, first value of mouse/rat pair
Method: (§1) Construction of TAAR Expression Plasmids and Stably Transfected Cell Lines
(§2) For the construction of expression plasmids the coding sequences of human, rat and mouse TAAR 1 were amplified from genomic DNA essentially as described by Lindemann et al.. The Expand High Fidelity PCR System (Roche Diagnostics) was used with 1.5 mM Mg^2+ and purified PCR products were cloned into pCR2.1-TOPO cloning vector (Invitrogen) following the instructions of the manufacturer. PCR products were subcloned into the pIRESneo2 vector (BD Clontech, Palo Alto, Calif.), and expression vectors were sequence verified before introduction in cell lines.
(§3) HEK293 cells (ATCC # CRL-1573) were cultured essentially as described by Lindemann et al. (2005). For the generation of stably transfected cell lines HEK293 cells were transfected with the pIRESneo2 expression plasmids containing the TAAR coding sequences (described above) with Lipofectamine 2000 (Invitrogen) according to the instructions of the manufacturer, and 24 hrs post transfection the culture medium was supplemented with 1 mg/ml G418 (Sigma, Buchs, Switzerland). After a culture period of about 10 d clones were isolated, expanded and tested for responsiveness to trace amines (all compounds purchased from Sigma) with the cAMP Biotrak Enzyme immunoassay (EIA) System (Amersham) following the non-acetylation EIA procedure provided by the manufacturer.
Radioligand Binding Assay on Mouse TAAR1
(§4) Membrane Preparation and Radioligand Binding.
(§5) HEK-293 cells stably expressing mouse TAAR1 were maintained at 37° C. and 5% CO2 in DMEM high glucose medium, containing fetal calf serum (10%, heat inactivated for 30 min at 56° C.), penicillin/streptomycin (1%), and 375 μg/ml geneticin (Gibco). Cells were released from culture flasks using trypsin/EDTA, harvested, washed twice with ice-cold PBS (without Ca^2+ and Mg^2+), pelleted at 1′000 rpm for 5 min at 4° C., frozen and stored at −80° C. Frozen pellets were suspended in 20 ml HEPES-NaOH (20 mM, pH 7.4) containing 10 mM EDTA and homogenized with a Polytron (PT 6000, Kinematica) at 14,000 rpm for 20 s. The homogenate was centrifuged at 48,000×g for 30 min at 4° C. Subsequently, the supernatant was removed and discarded, and the pellet resuspended in 20 ml HEPES-NaOH (20 mM, pH 7.4) containing 0.1 mM EDTA using the Polytron (20 s at 14,000 rpm). This procedure was repeated and the final pellet resuspended in HEPES-NaOH containing 0.1 mM EDTA and homogenized using the Polytron. Typically, aliquots of 2 ml membrane portions were stored at −80° C. With each new membrane batch the dissociation constant (Kd) was determined via a saturation curve. […] Nonspecific binding was defined as the amount of ^3[H]—(S)-4-[(ethyl-phenyl-amino)-methyl]-4,5-dihydro-oxazol-2-ylamine bound in the presence of 10 μM unlabeled ligand. All compounds were tested at a broad range of concentrations (10 pM to 10 μM) in duplicates. […] The 96 deep well plates were incubated for 1 hr at 4° C. Incubations were terminated by rapid filtration through Unifilter-96 plates (Packard Instrument Company) and glass filters GF/C (Perkin Elmer) presoaked for 1 hr in polyethylenimine (0.3%) and washed 3 times with 1 ml of cold binding buffer. After addition of 45 μl of Microscint 40 (PerkinElmer) the Unifilter-96 plate was sealed and after 1 hr the radioactivity counted using a TopCount Microplate Scintillation Counter (Packard Instrument Company).

[2] = molecular target: rat TAAR1 (Rattus norvegicus (Rat), UniProt Q923Y9); assay: Radioligand binding assay on rat TAAR1; conditions: for Ki: rat TAAR1, membranes of stably transfected HEK-293 cells, second value of mouse/rat pair
Method: as §1, §2, §3
Radioligand Binding Assay on Rat TAAR1
as §4
as §5, with “rat” for “mouse”, “[H]—(S)-4-[(ethyl-phenyl-amino)-methyl]-4,5-dihydro-oxazol-2-ylamine” for “^3[H]—(S)-4-[(ethyl-phenyl-amino)-methyl]-4,5-dihydro-oxazol-2-ylamine”

Sequence of rat TAAR1 (Q923Y9 whole entry): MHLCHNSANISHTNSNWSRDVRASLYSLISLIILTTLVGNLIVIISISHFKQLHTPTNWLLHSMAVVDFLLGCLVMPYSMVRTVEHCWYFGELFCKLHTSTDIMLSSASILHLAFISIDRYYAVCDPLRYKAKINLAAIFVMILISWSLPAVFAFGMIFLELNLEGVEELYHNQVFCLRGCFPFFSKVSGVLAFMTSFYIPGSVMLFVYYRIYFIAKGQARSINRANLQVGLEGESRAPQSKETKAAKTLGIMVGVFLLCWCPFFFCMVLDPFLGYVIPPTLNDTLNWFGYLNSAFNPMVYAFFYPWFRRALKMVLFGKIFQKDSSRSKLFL
Sequence of mouse TAAR1 (Q923Y8 whole entry): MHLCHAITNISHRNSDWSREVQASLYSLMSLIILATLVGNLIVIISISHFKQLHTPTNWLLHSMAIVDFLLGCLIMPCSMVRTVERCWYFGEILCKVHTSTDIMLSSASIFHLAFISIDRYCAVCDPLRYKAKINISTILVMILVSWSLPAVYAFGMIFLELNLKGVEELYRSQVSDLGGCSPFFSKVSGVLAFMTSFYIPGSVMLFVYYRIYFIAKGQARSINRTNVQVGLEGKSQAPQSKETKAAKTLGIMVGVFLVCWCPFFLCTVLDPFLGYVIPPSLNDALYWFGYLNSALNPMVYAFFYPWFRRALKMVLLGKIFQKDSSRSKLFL

Ki [1]	Ki [2]	Kd ([1]; mouse TAAR1 membranes, saturation curve, read-out: dissociation constant (Kd) of the radioligand)	Kd ([2]; rat TAAR1 membranes, saturation curve, read-out: dissociation constant (Kd) of the radioligand)	SMILES
0.173 µM	0.511 µM			N[C@H]1COc2cc(NC(=O)c3nccc(Cl)n3)ccc2C1 [Example 82, (R)—N-(3-Aminochroman-7-yl)-4-chloropyrimidine-2-carboxamide]
0.105 µM	0.309 µM			NC1CCc2cc(C(=O)Nc3cnc(C4CC4)nc3)ccc2C1 (stereo not shown) [Example 32, 6-Amino-N-(2-cyclopropylpyrimidin-5-yl)-5,6,7,8-tetrahydronaphthalene-2-carboxamide]
0.0009 µM	0.0061 µM			Cn1nc(C(=O)Nc2ccc3c(c2)OC[C@H](N)C3)cc1-c1cccs1 [Example 85, (R)—N-(3-Aminochroman-7-yl)-1-methyl-5-(thiophen-2-yl)-1H-pyrazole-3-carboxamide]
0.003 µM	0.0026 µM			CCc1ccc(NC(=O)Nc2ccc3c(c2)CC[C@H](N)C3)cc1 [Example 64, (S)-1-(6-Amino-5,6,7,8-tetrahydronaphthalen-2-yl)-3-(4-ethylphenyl)urea]
0.0028 µM	0.0037 µM			Cc1ccc(-n2cc(C(=O)Nc3ccc4c(c3)CC[C@H](N)C4)cn2)cc1 [Example 27, (S)—N-(6-Amino-5,6,7,8-tetrahydronaphthalen-2-yl)-1-p-tolyl-1H-pyrazole-4-carboxamide]
0.0371 µM	0.0758 µM			N[C@H]1COc2cc(NC(=O)c3ncc(C(F)(F)F)cn3)ccc2C1 [Example 84, (R)—N-(3-Aminochroman-7-yl)-5-(trifluoromethyl)pyrimidine-2-carboxamide]
0.0581 µM	0.0436 µM			Cc1cc(C(=O)Nc2ccc3c(c2)OC[C@H](N)C3)nc(C(F)(F)F)n1 [Example 12, (R)—N-(3-Aminochroman-7-yl)-6-methyl-2-(trifluoromethyl)pyrimidine-4-carboxamide]
		~0.7 nM	~2.3 nM	CCN(C[C@H]1COC(N)=N1)c1ccccc1 [(S)-4-[(ethyl-phenyl-amino)-methyl]-4,5-dihydro-oxazol-2-ylamine, reference compound]
0.0128 µM	0.0016 µM			CCn1nc(C(=O)Nc2ccc3c(c2)CC[C@H](N)C3)c(Br)c1OCC(F)F [Example 52, (S)—N-(6-Amino-5,6,7,8-tetrahydronaphthalen-2-yl)-4-bromo-5-(2,2-difluoroethoxy)-1-ethyl-1H-pyrazole-3-carboxamide]
0.0163 µM	0.0196 µM			N[C@H]1COc2cc(Nc3ncc(C(F)(F)F)cn3)ccc2C1 [Example 80, (R)—N7-(5-(Trifluoromethyl)pyrimidin-2-yl)chroman-3,7-diamine]
0.0198 µM	0.01 µM			CCCc1cc(C(=O)Nc2ccc3c(c2)OCC(N)C3)nn1CC(F)F (stereo not shown) [Example 8, N-(3-Aminochroman-7-yl)-1-(2,2-difluoroethyl)-5-propyl-1H-pyrazole-3-carboxamide]
0.0075 µM	0.0044 µM			COc1cccc(NC(=O)Nc2ccc3c(c2)CC[C@H](N)C3)c1 [Example 67, (S)-1-(6-Amino-5,6,7,8-tetrahydronaphthalen-2-yl)-3-(3-methoxyphenyl)urea]
0.0111 µM	0.0034 µM			CCCc1cc(C(=O)Nc2ccc3c(c2)OC[C@H](N)C3)nn1CC(F)F [Example 10, (R)—N-(3-Aminochroman-7-yl)-1-(2,2-difluoroethyl)-5-propyl-1H-pyrazole-3-carboxamide]
0.0082 µM	0.0277 µM			CCOc1[nH]nc(C(=O)Nc2ccc3c(c2)OC[C@H](N)C3)c1C [Example 81, (R)—N-(3-Aminochroman-7-yl)-5-ethoxy-4-methyl-1H-pyrazole-3-carboxamide]
0.003 µM	0.0017 µM			NC1CCc2cc(C(=O)Nc3cccc(OC(F)(F)F)c3)ccc2C1 (stereo not shown) [Example 55, 6-Amino-N-(3-(trifluoromethoxy)phenyl)-5,6,7,8-tetrahydronaphthalene-2-carboxamide]

SMILES	Ki [1]	Ki [2]	Kd ([1]; mouse TAAR1 membranes, saturation curve, read-out: dissociation constant (Kd) of the radioligand)	Kd ([2]; rat TAAR1 membranes, saturation curve, read-out: dissociation constant (Kd) of the radioligand)
N[C@H]1CCc2cc(NC(=O)c3ccc(F)c(F)c3)ccc2C1 [Example 42, (S)—N-(6-Amino-5,6,7,8-tetrahydronaphthalen-2-yl)-3,4-difluorobenzamide]	0.0035 µM	0.0019 µM		
N[C@H]1CCc2cc(Nc3cccc(Cl)c3)ccc2C1 [Example 68, (S)—N6-(3-Chlorophenyl)-1,2,3,4-tetrahydronaphthalene-2,6-diamine]	0.019 µM	0.0099 µM		
NC1CCc2cc(C(=O)Nc3ccc(Cl)cc3)ccc2C1 (stereo not shown) [Example 57, 6-Amino-N-(4-chlorophenyl)-5,6,7,8-tetrahydronaphthalene-2-carboxamide]	0.0116 µM	0.0142 µM		
N[C@H]1CCc2cc(Nc3ccc(C(F)(F)F)cn3)ccc2C1 [Example 38, (S)—N6-(5-(Trifluoromethyl)pyridin-2-yl)-1,2,3,4-tetrahydronaphthalene-2,6-diamine]	0.0032 µM	0.0021 µM		
CCc1ccc(NC(=O)c2ccc3c(c2)CCC(N)C3)cc1 (stereo not shown) [Example 56, 6-Amino-N-(4-ethylphenyl)-5,6,7,8-tetrahydronaphthalene-2-carboxamide]	0.0155 µM	0.0456 µM		
N[C@H]1CCc2cc(Nc3ccc(F)cc3)ccc2C1 [Example 66, (S)—N6-(4-Fluorophenyl)-1,2,3,4-tetrahydronaphthalene-2,6-diamine]	0.171 µM	0.024 µM		
N[C@@H]1CCc2cc(NC(=O)c3ccccc3Cl)ccc2C1 [Example 15, (R)—N-(6-Amino-5,6,7,8-tetrahydronaphthalen-2-yl)-2-chlorobenzamide]	1.97 µM	0.6 µM		
N[C@H]1CCc2cc(NC(=O)c3cnc(Cl)c(Cl)c3)ccc2C1 [Example 41, (S)—N-(6-Amino-5,6,7,8-tetrahydronaphthalen-2-yl)-5,6-dichloronicotinamide]	0.0031 µM	0.0031 µM		
COc1ccc(C(=O)Nc2ccc3c(c2)CC[C@H](N)C3)cn1 [Example 21, (S)—N-(6-Amino-5,6,7,8-tetrahydronaphthalen-2-yl)-6-methoxynicotinamide]	0.0344 µM	0.0513 µM		
N[C@H]1CCc2cc(NCc3ccc(Cl)cc3)ccc2C1 [Example 75, (S)—N6-(4-Chlorobenzyl)-1,2,3,4-tetrahydronaphthalene-2,6-diamine]	0.0048 µM			
